# Assay results taken from ChEMBL document CHEMBL2331208, “Steroids glycosylated with both D- and L-arabinoses from the South China Sea gorgonian Dichotella gemmacea” (J Nat Prod, 2013).
# Counter-ions that a name gives are not always drawn.
# Legend:
# MG-63 = assay: Cytotoxicity against human MG63 cells by MTT assay; assay type: functional, cell-based
# A549 = assay: Cytotoxicity against human A549 cells by MTT assay; assay type: functional, cell-based
SMILES,IC50 (MG-63),IC50 (A549)
CC(=O)OC(C)(C)CCC[C@@H](C)[C@H]1CC[C@H]2[C@@H]3CC=C4C[C@@H](O[C@H]5OC[C@H](O)[C@H](O)[C@H]5O)CC[C@]4(CO)[C@H]3CC[C@]12C [JUNCEELLOSIDE C],17.2 µM,11.4 µM
C=C(CC[C@@H](C)[C@H]1CC[C@H]2[C@@H]3CC=C4C[C@@H](O[C@H]5OC[C@H](O)[C@H](O)[C@H]5O)CC[C@]4(CO)[C@H]3CC[C@]12C)C(C)(C)OC(C)=O [JUNCEELLOSIDE E],> 50 µM,> 50 µM
CC(=O)O[C@@H]1[C@H](O[C@H]2CC[C@@]3(CO)C(=CC[C@@H]4[C@@H]3CC[C@]3(C)[C@@H]([C@H](C)CCCC(C)(C)OC(C)=O)CC[C@@H]43)C2)OC[C@@H](O)[C@H]1O [JUNCEELLOSIDE G],23 µM,13.9 µM
COc1cccc2c1C(=O)c1c(O)c3c(c(O)c1C2=O)C[C@@](O)(C(=O)CO)C[C@@H]3O[C@H]1C[C@H](N)[C@H](O)[C@H](C)O1 [DOXORUBICIN HYDROCHLORIDE],3.4 µM,–
CC(=O)OC(C)(C)C/C=C/[C@@H](C)[C@H]1CC[C@H]2[C@@H]3CC=C4C[C@@H](O[C@@H]5OC[C@@H](O)[C@@H](O)[C@@H]5O)CC[C@]4(CO)[C@H]3CC[C@]12C [JUNCEELLOSIDE F],23 µM,> 50 µM
